# Reference: patent US9796714B2, “Calcium channel agonists” (University of Pittsburgh—Of the Commonwealth System of …, priority 2013, dated 2017)
# Columns and labels:
# [1] = biological target: T1, myosin light-chain kinase (MLCK(h)) (Homo sapiens, UniProt Q9H1R3); assay: Kinase inhibitory activity (EMD Millipore KinaseProfiler), MLCK; assay type: biochemical; conditions: 20 μM highest concentration used; read-out: MLCK EC50/IC50 affinities
# T1 construct: purchased EMD Millipore KinaseProfiler service (Millipore UK Ltd.)
# Method: Kinase inhibitory activity. Kinase inhibitory activities were determined using the EMD Millipore KinaseProfiler™ service (Millipore UK Ltd.). Each compound's kinase inhibitory activity was tested at three different concentrations (0.2 μM, 2 μM, and 20 μM) against five different kinases: Cdk1 cyclinB(h), cdk2 cyclinA(h), cdk5 p35(h), mitogen-activated protein kinase (MAPK1(h)) and myosin light-chain kinase (MLCK(h)).
# Statistical Analysis. […] For the dose-response analyses on Ca^2+ current, each concentration of the four different compounds was tested in 3-6 cells. […] All EC50 and IC50 values and their respective errors were determined by performing 100 iterations of a logistic function curve fit.
# [2] = tested on: LEMS model NMJs; assay: Intracellular recordings at LEMS model mouse NMJs, 13x, DAP and combination (Example 4); conditions: 50 μM 13x, […] DAP, or both
# Method: To test this, intracellular microelectrode recordings were performed on ex vivo nerve-muscle preparations taken from LEMS passive-transfer model mice and measured the magnitude of acetylcholine released at the neuromuscular junction. The most sensitive method of quantifying the magnitude of acetylcholine released is to determine the quantal content. Quantal content is defined as the number of neurotransmitter-containing synaptic vesicles that are released from the nerve terminal during a single action potential stimulus. This value was determined by first measuring the area under the average action potential-evoked endplate potential (EPP) and then dividing this value by the area under the average single vesicle release event (miniature endplate potential; mEPP). This value could be compared between experimental groups to provide an accurate measurement of changes in the magnitude of acetylcholine released during a single action potential. Using this approach, the quantal content among five experimental conditions was compared: control NMJs, LEMS NMJs, LEMS NMJs exposed to 50 μM 13x, LEMS NMJs exposed to 1.5 μM DAP, and LEMS NMJs exposed to 50 μM 13x+1.5 μM DAP (FIG. 10). […]; EPP amplitude=10.18±0.62 mV) as compared with control serum treated mouse NMJs (QC=107.5±3.6; EPP amplitude=34.62±1.37 mV; Tarr et al., 2013). […] In fact, this 13x-mediated enhancement was very similar to what was observed after exposure of LEMS model NMJs to 1.5 μM DAP (QC=49.0±4.4; EPP amplitude=17.94±1.381 mV). […]; EPP amplitude=34.62±1.37 mV; Tarr et al., 2013). […] In summary, while either 13x or DAP alone caused about an 80% increase in transmitter release from LEMS model NMJs, the combination of 13x plus DAP caused about a 300% increase in transmitter release.
structure (smiles),measurement,setting,value
"CCCn1cnc2c(NCc3ccc(C)s3)nc(N[C@H](CC)CO)nc21 [Compound 13x, (2R)-2-[(6-{[(5-Methylthiophen-2-yl)methyl]amino}-9-propyl-9H-purin-2-yl)amino]butan-1-ol]",IC50,[1],> 20 µM
same,10th EPP of 50 Hz train as % of the first EPP (short-term plasticity),[2],~123%
same,increase in transmitter release from LEMS model NMJs,[2],~80%
same,EPP amplitude,[2]; LEMS model NMJs,13.75±1.244 mV
same,"quantal content (QC, area of EPP divided by area of mEPP)","[2]; LEMS model NMJs, mean±s.e.m.",48.4±2.7
